The values that follow are results of earlier work, collected in paper PMC9187593 (Bioorganic chemistry, 2022).

For this data set, the system named is ICR mice. As to conditions: positive controls.

Regarding `CC(C(=O)O)c1cccc(C(=O)c2ccccc2)c1` (centres unmarked) [ketoprofen], the “Effect on IP acid-stimulated stretching” value is “dose-dependent and significant decrease in IP acid-stimulated stretching”.

For `COc1ccc2c3c1O[C@H]1C(=O)CC[C@@]4(O)[C@@H](C2)N(C)CC[C@]314` [oxycodone], the “Effect on IP acid-stimulated stretching” value is “dose-dependent and significant decrease in IP acid-stimulated stretching”.
